Key:
[1] = target: hERG potassium ion channel (Homo sapiens (Human), UniProt Q12809); experiment: Inhibition test of hERG potassium ion channel (automatic patch clamp, CHO-hERG cells); type: cell-based; details: conclusion in words
Description: The effect of the to-be-tested compound on the potassium ion channel of hERG was detected by a fully automatic patch clamp method.
The cells stably expressing hERG potassium channel used in the experiment were obtained from CHO-hERE of Aviva Biosciences, and CHO-hERG was cultured in 5% CO2 at 37° C.
CHO-hERG cells prepared for the experiment were cultured for at least two days, and the cell density reached 75% or more. Prior to the start of the experiment, cells were digested with TrypLE and then resuspended in extracellular fluid to collect the cells.
Extracellular fluids need to be prepared once a month. The intracellular fluid need to be subpackaged and frozen at −20° C.
The to-be-tested compound and the positive control Amitriptyline were dissolved in DMSO to a certain concentration of the stock solution, and then diluted according to different gradients, and finally added to the extracellular fluid in a certain ratio, and diluted to a concentration to be measured. Visual inspection was performed to see if there was any precipitation before the start of the experiment. Finally, the concentration of DMSO in the to-be-tested solution and the positive control Amitriptyline should not exceed 0.3%. […]
In each complete current record, based on the percentage of peak current in the negative control, the percent inhibition of the concentration of each compound can be calculated. […]

[2] = tested on: CCl4-induced chronic liver fibrosis male C57BL/6 model; experiment: Oral CCl4-induced chronic liver fibrosis model; type: in vivo, C57BL/6 mice; details: oral daily for 28 days, superior to PXS-4728A in the same dosage
Description: The therapeutic effect of compounds on an oral CCl4-induced chronic liver fibrosis male C57BL/6 model was tested.
Male C57BL/6 mice, 7-8 weeks old;
Experimental method: Male C57BL/6 mice were orally administered from the day CCl4 was put for modeling, and administered daily. Continuous administration was conducted for 28 days. The animals were fasted for at least 6 hours on the next day after the last administration Animal weight was measured during euthanasia and all animals were euthanized under the guidance of the KCl Animal Euthanasia SOP. Non-anticoagulant venous blood of mice was collected from the ocular venous plexus. The whole blood was allowed to stand at room temperature for 30 minutes, and centrifuged at 5000 rpm for 5 minutes, and the serum was separated and placed in a 1.5 ml EP tube and stored at −80° C. After the whole body of the animal was perfused with hypothermic saline, the liver was taken and subjected to tissue gross image acquisition. The left lobe of the liver was divided into 4 equal parts and put into 4 tissue cryotubes for liquid nitrogen freezing, and then transferred to −80° C. for storage. The rest of the liver tissue was fixed in 10% neutral formalin fixative. […] HE staining was subjected to double-blind score by two pathological readers, and the area of hepatic fibrosis was analyzed for sirius-red stained sections by digital pathology.

[3] = Distribution of compounds in liver and blood of CD-1 mice; type: in vivo; details: single oral dose; for Liver Concentration (@1.0 hour) / Plasma Concentration (@1.0 hour): 1 hour after administration; for Liver Concentration/Plasma Concentration (@1.0 hour) / Liver Concentration/Plasma Concentration (@4.0 hour): ratio; for Liver Concentration (@4.0 hour) / Plasma Concentration (@4.0 hour): 4 hours after administration
Description: Experimental purpose: distribution of compounds in liver and blood of CD-1 mice was tested;
CD-1 Mice (male, 25-35 g, 6-9 weeks old, Shanghai Slack);
Experimental procedure: after oral administration, the drug was distributed in the liver and blood of rodents, candidate compounds in the experiment were formulated into a clear solution to be administered to mice in a single oral dose. The oral solvent was a certain proportion of an aqueous solution of hydroxypropyl β-cyclodextrin or a physiological saline solution. The concentration of the drug in the liver and blood was measured at 1 hour and 4 hours after administration.

VAP-1/SSAO [4] = target: T1, VAP-1/SSAO (Homo sapiens (Human), UniProt Q16853); experiment: Human VAP-1 enzyme activity assay (Amplex Red Monoamine Oxidase kit); type: biochemical; details: 10 nM VAP-1 enzyme, 30 min preincubation, benzylamine substrate; read-out: Human Recombinant VAP-1/SSAO Enzyme Inhibitory Activity IC50
Description: Human VAP-1 Enzyme Activity Assay:
The inhibition of the sample on VAP-1 enzyme activity was measured by using an Amplex® Red Monoamine Oxidase kit (Invitrogen #A12214). 100 nL of the gradiently-diluted to-be-tested compound (solvent DMSO) was added to a 384-well plate. 25 μL of 10 nM VAP-1 enzyme solution was added and incubated for 30 minutes at room temperature. A substrate mixture of VAP-1 enzyme (200 μM Amplex Red, 1 U/mL HRP, 1 mM Benzylamine) was added and incubated for 60 minutes at room temperature. After the incubation, the fluorescent signal was read with a microplate reader Envision (excitation light wavelength 530-560 nm, emission light wavelength 590 nm). The fluorescence signal value after the background signal was removed was analyzed by Prism software, and the IC50 of the sample against the VAP-1 enzyme was calculated.

VAP-1/SSAO [5] = target: T1, VAP-1/SSAO; experiment: VAP-1 cell activity assay (HUVEC or CHO cells transfected with VAP-1/pCDNA(3.1) plasmid, Amplex Red); type: cell-based; details: HUVEC or CHO cells transfected with VAP-1 plasmid; read-out: VAP-1/SSAO Cellular Inhibitory Activity IC50
Description: The inhibition of the sample on VAP-1 cell activity was measured by using an Amplex® Red Monoamine Oxidase kit (Invitrogen #A12214).
The cultured HUVEC or CHO cells were plated into a 6-well plate at a density of 0.8 M/well, placed in a 37° C., 5% CO2 incubator for incubation for 24 hours, and then the cells was transferred with a Lipo2000 reagent and a VAP-1/pCDNA (3.1) plasmid, and liquid was changed for the cells after 5 hours (Lipo2000 was toxic to the cells); after 24 hours, the cells were digested and plated into 384-well plates with a density of 25 μl, 10000 cells/well, and liquid was replaced with medium without FBS for the cells after 6-7 hours, and the cell plates were incubated overnight at 37° C. in a 5% CO2 incubator.
1) Dilution of the compound: serial dilution in 4× gradient was carried out with 100% DMSO, 10 points were diluted, the starting concentration of the to-be-tested compound was 0.5 mM (final concentration was 1) μM); 100 nl of compound solution was transferred to a 384-well cell assay plate with ECHO. […]
5) The reaction was carried out in the dark at room temperature for 60 minutes, and the fluorescence value was measured by Envision: the excitation wave was 535 nm, and the emission wave was 590 nm. […]
7) The data were analyzed with Prism. The IC50 of the sample against VAP-1 cells was calculated.

T1 sequence (Q16853 whole entry): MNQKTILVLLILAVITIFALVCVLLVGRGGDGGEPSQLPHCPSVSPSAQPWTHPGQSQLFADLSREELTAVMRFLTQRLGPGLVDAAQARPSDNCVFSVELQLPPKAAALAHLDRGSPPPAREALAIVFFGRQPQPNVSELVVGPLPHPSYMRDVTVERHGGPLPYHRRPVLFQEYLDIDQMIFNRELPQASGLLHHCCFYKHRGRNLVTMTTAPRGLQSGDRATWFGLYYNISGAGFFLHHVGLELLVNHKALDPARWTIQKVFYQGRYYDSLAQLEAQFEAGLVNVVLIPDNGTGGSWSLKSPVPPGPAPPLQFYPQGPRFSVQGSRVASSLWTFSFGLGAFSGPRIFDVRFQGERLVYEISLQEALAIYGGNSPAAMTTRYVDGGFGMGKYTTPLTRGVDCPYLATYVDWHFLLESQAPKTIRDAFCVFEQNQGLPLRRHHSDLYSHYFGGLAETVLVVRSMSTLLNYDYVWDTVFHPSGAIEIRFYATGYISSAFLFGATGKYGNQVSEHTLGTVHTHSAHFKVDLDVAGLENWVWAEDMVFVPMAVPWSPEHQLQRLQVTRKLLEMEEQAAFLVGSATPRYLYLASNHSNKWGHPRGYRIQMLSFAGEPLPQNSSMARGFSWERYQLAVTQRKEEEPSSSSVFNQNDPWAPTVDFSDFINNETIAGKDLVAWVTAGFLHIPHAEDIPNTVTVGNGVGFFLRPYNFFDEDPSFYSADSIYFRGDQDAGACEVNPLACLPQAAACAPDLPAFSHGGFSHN
Chain of hERG potassium ion channel (Q12809 whole entry): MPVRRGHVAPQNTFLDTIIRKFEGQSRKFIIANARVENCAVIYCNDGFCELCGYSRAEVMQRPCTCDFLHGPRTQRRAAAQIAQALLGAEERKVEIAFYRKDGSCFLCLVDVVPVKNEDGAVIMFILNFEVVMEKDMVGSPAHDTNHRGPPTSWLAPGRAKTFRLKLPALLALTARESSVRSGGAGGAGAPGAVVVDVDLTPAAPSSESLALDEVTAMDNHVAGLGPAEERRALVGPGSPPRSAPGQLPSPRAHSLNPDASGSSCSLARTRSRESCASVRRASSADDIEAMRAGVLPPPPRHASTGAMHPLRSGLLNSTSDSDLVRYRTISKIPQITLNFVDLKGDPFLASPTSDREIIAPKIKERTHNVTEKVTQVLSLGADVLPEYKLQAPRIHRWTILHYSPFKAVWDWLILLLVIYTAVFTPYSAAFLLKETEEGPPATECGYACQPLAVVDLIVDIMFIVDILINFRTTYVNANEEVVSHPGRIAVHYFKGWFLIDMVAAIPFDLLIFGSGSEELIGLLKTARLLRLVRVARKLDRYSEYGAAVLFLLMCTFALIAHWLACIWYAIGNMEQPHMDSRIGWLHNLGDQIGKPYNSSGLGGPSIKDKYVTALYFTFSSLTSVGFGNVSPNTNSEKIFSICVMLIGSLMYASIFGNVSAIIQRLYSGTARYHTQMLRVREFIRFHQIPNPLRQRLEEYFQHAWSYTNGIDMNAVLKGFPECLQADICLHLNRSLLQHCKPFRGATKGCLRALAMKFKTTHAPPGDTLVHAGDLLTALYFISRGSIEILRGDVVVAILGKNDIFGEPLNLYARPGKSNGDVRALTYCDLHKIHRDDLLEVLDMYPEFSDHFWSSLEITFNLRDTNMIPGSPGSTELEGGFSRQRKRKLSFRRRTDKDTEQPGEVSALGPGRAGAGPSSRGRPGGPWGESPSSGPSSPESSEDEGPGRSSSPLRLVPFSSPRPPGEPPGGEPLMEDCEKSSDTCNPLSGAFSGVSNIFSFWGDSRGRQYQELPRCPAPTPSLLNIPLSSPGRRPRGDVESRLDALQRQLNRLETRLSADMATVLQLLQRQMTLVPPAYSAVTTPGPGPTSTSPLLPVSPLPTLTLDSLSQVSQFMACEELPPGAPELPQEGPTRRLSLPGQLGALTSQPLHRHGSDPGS

Row | SMILES | inhibition of hERG potassium current [1] | effect on liver fibrosis (Sirius-Red staining) [2] | effect on liver injury (liver injury score, HE staining) [2] | Liver Concentration (@1.0 hour) [3] | Plasma Concentration (@1.0 hour) [3] | Liver Concentration/Plasma Concentration (@1.0 hour) [3] | Liver Concentration (@4.0 hour) [3] | Plasma Concentration (@4.0 hour) [3] | Liver Concentration/Plasma Concentration (@4.0 hour) [3] | IC50 (VAP-1/SSAO [4]) [nM] | IC50 (VAP-1/SSAO [5]) [nM]
1 | Cl.Cn1nc(-c2ccc(OC/C(=C/F)CN)cc2)nc1C(F)F [WX126] | weak inhibition | obvious improvement effect | obvious improvement effect | 13520 | 934 | 15 | 3364 | 190 | 17 |  | 
2 | Cc1noc(-c2ccc(OC/C(=C/F)CN)cc2)n1.Cl [WX008] | weak inhibition |  |  |  |  |  |  |  |  |  | 
3 | Cn1nc(-c2ccc(OC/C(=C/F)CN)cc2F)nc1C1CC1 [WX098] |  |  |  |  |  |  |  |  |  | 1.8 | 0.2
4 | CC(C)(C)NC(=O)c1ccc(OC/C(=C/F)CN)cc1.Cl [PXS-4728A, reference compound] |  |  |  | 13140 | 1470 | 10 | 2120 | 154 | 14 |  | 
